Laboratory results from ChEMBL document CHEMBL1201862, “PubChem BioAssay data set” (2004).
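Test compounds were applied to cells in 96-well plates for 48 hours at 5 doses. The concentration for 50% growth inhibition is given as GI50.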 Activity calls are given as the source filed them. Rule as the data show it: active = GI50 up to about 1.1 µM and inactive = higher.

Experiments:
Assay in all cases: growth of human tumour cells (NCI), 48 h
OVCAR-8 = tested on: OVCAR-8
KM12 = tested on: KM12
NCI-H460 = tested on: NCI-H460
RXF 393 = tested on: RXF 393
CAKI-1 = tested on: CAKI-1
ACHN = tested on: ACHN
OVCAR-5 = tested on: OVCAR-5
MDA-N = tested on: MDA-N
EKVX = tested on: EKVX
HOP-62 = tested on: HOP-62
HCT-116 = tested on: HCT-116
NCI-H522 = tested on: NCI-H522
SK-MEL-5 = tested on: SK-MEL-5
SW-620 = tested on: SW-620
SF-268 = tested on: SF-268
OVCAR-3 = tested on: OVCAR-3
SK-MEL-28 = tested on: SK-MEL-28
M14 = tested on: M14
MDA-MB-231 = tested on: MDA-MB-231
NCI-H226 = tested on: NCI-H226

SMILES	GI50 (OVCAR-8)	GI50 (KM12)	GI50 (NCI-H460)	GI50 (RXF 393)	GI50 (CAKI-1)	GI50 (ACHN)	GI50 (OVCAR-5)	GI50 (MDA-N)	GI50 (EKVX)	GI50 (HOP-62)	GI50 (HCT-116)	GI50 (NCI-H522)	GI50 (SK-MEL-5)	GI50 (SW-620)	GI50 (SF-268)	GI50 (OVCAR-3)	GI50 (SK-MEL-28)	GI50 (M14)	GI50 (MDA-MB-231)	GI50 (NCI-H226)
O=P(O)(CCP(=O)(O)c1ccccc1)c1ccccc1	> 100 µM (inactive)	> 100 µM (inactive)	> 100 µM (inactive)	> 100 µM (inactive)	> 100 µM (inactive)	> 100 µM (inactive)	> 100 µM (inactive)	> 100 µM (inactive)	> 100 µM (inactive)	> 100 µM (inactive)	> 100 µM (inactive)	> 100 µM (inactive)	> 100 µM (inactive)	> 100 µM (inactive)	> 100 µM (inactive)	> 100 µM (inactive)	> 100 µM (inactive)	> 100 µM (inactive)	> 100 µM (inactive)	> 100 µM (inactive)
CC(=O)SC(C[N+](=O)[O-])c1ccccc1 (stereo not given)	11.8 µM (inactive)	4.99 µM (inactive)	8.67 µM (inactive)	2.1 µM (inactive)	14 µM (inactive)	3.66 µM (inactive)	3.8 µM (inactive)	2.32 µM (inactive)	6.31 µM (inactive)	15.3 µM (inactive)	1.6 µM (inactive)	16.4 µM (inactive)	2.68 µM (inactive)	2.18 µM (inactive)	7.98 µM (inactive)	5.37 µM (inactive)	5.55 µM (inactive)	3.84 µM (inactive)	10.8 µM (inactive)	2.59 µM (inactive)
COc1ccc2c(c1)c1c3c(ccc4ncn2c43)N(CCN(C)C)CCN=1	0.284 µM (active)	0.374 µM (active)	0.176 µM (active)	1.12 µM (active)	1.71 µM (inactive)	0.701 µM (active)	0.676 µM (active)	0.438 µM (active)	0.586 µM (active)	0.362 µM (active)	0.298 µM (active)	0.19 µM (active)	0.91 µM (active)	0.146 µM (active)	0.836 µM (active)	0.538 µM (active)	0.897 µM (active)	0.895 µM (active)	0.476 µM (active)	1.14 µM (inactive)
CCOC(=O)c1cc(C2CCN(c3ccccc3)C2=O)c(C(=O)/C=C(/C)O)[nH]1 (stereo not given)	> 100 µM (inactive)	45.2 µM (inactive)	> 100 µM (inactive)	21.6 µM (inactive)	47.8 µM (inactive)	> 100 µM (inactive)	> 100 µM (inactive)	58.6 µM (inactive)	24.7 µM (inactive)	> 100 µM (inactive)	65.8 µM (inactive)	67.5 µM (inactive)	36.3 µM (inactive)	> 100 µM (inactive)	> 100 µM (inactive)	> 100 µM (inactive)	> 100 µM (inactive)	> 100 µM (inactive)	81.5 µM (inactive)	> 100 µM (inactive)
COC(=O)C(=O)C(C(=O)C(N)=O)c1nc2ccc(C(=O)c3ccccc3)cc2nc1O (stereo not given)	53.8 µM (inactive)	46.9 µM (inactive)	74.5 µM (inactive)	69.7 µM (inactive)	56 µM (inactive)	63 µM (inactive)	> 100 µM (inactive)	> 100 µM (inactive)	> 100 µM (inactive)	> 100 µM (inactive)	> 100 µM (inactive)	40.7 µM (inactive)	45.7 µM (inactive)	> 100 µM (inactive)	> 100 µM (inactive)	> 100 µM (inactive)	> 100 µM (inactive)	> 100 µM (inactive)	> 100 µM (inactive)	> 100 µM (inactive)
CCN(CC)CCCNc1ccc2nnn3c4ccc(O)cc4c(=O)c1c23	2.97 µM (inactive)	6.61 µM (inactive)	0.653 µM (active)	1.64 µM (inactive)	4.08 µM (inactive)	3.34 µM (inactive)	13.8 µM (inactive)	8.71 µM (inactive)	16.1 µM (inactive)	10.7 µM (inactive)	1.15 µM (inactive)	3.05 µM (inactive)	7.55 µM (inactive)	2.69 µM (inactive)	5.3 µM (inactive)	11.4 µM (inactive)	18 µM (inactive)	9.27 µM (inactive)	7.74 µM (inactive)	6.87 µM (inactive)
O=C1C=C(c2ccccc2)O/C1=C\C(=O)c1ccc(Cl)cc1	22.6 µM (inactive)	34.4 µM (inactive)	> 100 µM (inactive)	17.7 µM (inactive)	18.1 µM (inactive)	16.1 µM (inactive)	24.3 µM (inactive)	23.6 µM (inactive)	> 100 µM (inactive)	> 100 µM (inactive)	16.4 µM (inactive)	20.7 µM (inactive)	21.5 µM (inactive)	1.73 µM (inactive)	20 µM (inactive)	22.1 µM (inactive)	19.9 µM (inactive)	19.6 µM (inactive)	18.1 µM (inactive)	17.4 µM (inactive)
COc1ccc(-c2c(C#N)c(-c3ccc(C)cc3)n(NS(=O)(=O)c3ccccc3)c(=O)c2C#N)cc1	58.1 µM (inactive)	46.3 µM (inactive)	45.8 µM (inactive)	36.2 µM (inactive)	74.1 µM (inactive)	45 µM (inactive)	> 100 µM (inactive)	70.8 µM (inactive)	53.5 µM (inactive)	51.3 µM (inactive)	42.6 µM (inactive)	87.7 µM (inactive)	19.5 µM (inactive)	46.7 µM (inactive)	80.4 µM (inactive)	30.9 µM (inactive)	48.1 µM (inactive)	48.6 µM (inactive)	> 100 µM (inactive)	> 100 µM (inactive)
NC(=O)NC1NC(=O)NC1=O (stereo not given) [ALLANTOIN]	> 100 µM (inactive)	> 100 µM (inactive)	> 100 µM (inactive)	> 100 µM (inactive)	> 100 µM (inactive)	> 100 µM (inactive)	> 100 µM (inactive)	> 100 µM (inactive)	> 100 µM (inactive)	> 100 µM (inactive)	> 100 µM (inactive)	> 100 µM (inactive)	> 100 µM (inactive)	> 100 µM (inactive)	> 100 µM (inactive)	> 100 µM (inactive)	> 100 µM (inactive)	> 100 µM (inactive)	> 100 µM (inactive)	> 100 µM (inactive)
O=[N+]([O-])c1ccc(CSC2=C(c3ccc(Cl)cc3)S/C(=C3\SC(SCc4ccc([N+](=O)[O-])cc4)=C(c4ccc(Cl)cc4)S3)S2)cc1	> 100 µM (inactive)	> 100 µM (inactive)	> 100 µM (inactive)	> 100 µM (inactive)	> 100 µM (inactive)	> 100 µM (inactive)	> 100 µM (inactive)	> 100 µM (inactive)	> 100 µM (inactive)	> 100 µM (inactive)	> 100 µM (inactive)	> 100 µM (inactive)	> 100 µM (inactive)	> 100 µM (inactive)	> 100 µM (inactive)	> 100 µM (inactive)	> 100 µM (inactive)	> 100 µM (inactive)	> 100 µM (inactive)	> 100 µM (inactive)
CC(Oc1ccccc1Cl)C(=O)NN1C(=O)CC(=O)NC1=S (stereo not given)	> 100 µM (inactive)	83.8 µM (inactive)	> 100 µM (inactive)	> 100 µM (inactive)	> 100 µM (inactive)	63.7 µM (inactive)	> 100 µM (inactive)	> 100 µM (inactive)	> 100 µM (inactive)	> 100 µM (inactive)	> 100 µM (inactive)	> 100 µM (inactive)	> 100 µM (inactive)	> 100 µM (inactive)	> 100 µM (inactive)	> 100 µM (inactive)	> 100 µM (inactive)	> 100 µM (inactive)	> 100 µM (inactive)	> 100 µM (inactive)
C=C1C(=O)OC2C3C(=C)[C@@H](OC(C)=O)CC3C(C)=CC(OC(=O)C(C)(O)C(C)OC(C)=O)[C@@H]12 (stereo not given in full)	20.1 µM (inactive)	15.2 µM (inactive)	17.6 µM (inactive)	3.61 µM (inactive)	2.9 µM (inactive)	10.4 µM (inactive)	11.9 µM (inactive)	5.82 µM (inactive)	16.1 µM (inactive)	21.3 µM (inactive)	5.02 µM (inactive)	1.52 µM (inactive)	7.4 µM (inactive)	2.88 µM (inactive)	19.5 µM (inactive)	9.82 µM (inactive)	14 µM (inactive)	7.6 µM (inactive)	19.8 µM (inactive)	21.6 µM (inactive)
